Results published in ChEMBL document CHEMBL1156135 (Bioorg Med Chem Lett, 2009).
pIC50: −log10 of the molar value.

What was measured:
[1] = test system: A-375; assay: Antiproliferative activity against human A375 cells expressing b-Raf V600E mutant; assay type: functional, cell-based
[2] = Antiproliferative activity against human WM266.4 cells expressing b-Raf V600E mutant; assay type: functional, cell-based; conditions: WM 266-4
[3] = target: Serine/threonine-protein kinase B-raf (Homo sapiens, UniProt P15056); assay: Inhibition of B-Raf
Sequence of Serine/threonine-protein kinase B-raf (P15056 whole entry): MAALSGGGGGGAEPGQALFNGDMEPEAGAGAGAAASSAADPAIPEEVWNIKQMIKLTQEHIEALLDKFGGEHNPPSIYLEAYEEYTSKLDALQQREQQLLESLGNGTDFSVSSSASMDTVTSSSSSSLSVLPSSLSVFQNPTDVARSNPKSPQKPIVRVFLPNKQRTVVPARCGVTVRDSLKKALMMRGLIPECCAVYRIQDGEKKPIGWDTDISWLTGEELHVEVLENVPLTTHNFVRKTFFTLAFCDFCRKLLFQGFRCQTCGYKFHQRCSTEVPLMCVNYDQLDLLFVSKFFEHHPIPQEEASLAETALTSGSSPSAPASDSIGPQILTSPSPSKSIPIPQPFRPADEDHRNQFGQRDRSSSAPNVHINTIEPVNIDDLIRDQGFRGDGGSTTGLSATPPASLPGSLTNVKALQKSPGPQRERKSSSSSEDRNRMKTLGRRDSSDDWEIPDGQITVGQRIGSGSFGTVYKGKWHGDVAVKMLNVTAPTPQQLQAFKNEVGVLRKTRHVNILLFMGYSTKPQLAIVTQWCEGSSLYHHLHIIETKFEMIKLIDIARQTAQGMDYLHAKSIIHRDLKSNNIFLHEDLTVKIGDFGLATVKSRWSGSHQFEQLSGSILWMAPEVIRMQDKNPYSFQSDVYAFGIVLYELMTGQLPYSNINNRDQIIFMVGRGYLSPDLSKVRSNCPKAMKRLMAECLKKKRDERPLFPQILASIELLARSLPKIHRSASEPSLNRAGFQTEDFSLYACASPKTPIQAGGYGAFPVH

[4] = Therapeutic index, ratio of IC50 for human Caco-2 cells expressing wild type b-Raf to IC50 for human WM266.4 cells expressing b-Raf V600E mutant; assay type: cell-based; conditions: read-out: Ratio IC50
[5] = Selectivity for B-raf over p38alpha
[6] = Therapeutic index, ratio of IC50 for human Caco-2 cells expressing wild type b-Raf to IC50 for human A375 cells expressing b-Raf V600E mutant; assay type: cell-based; conditions: read-out: Ratio IC50
[7] = test system: Caco-2; assay: Antiproliferative activity against human Caco-2 cells expressing wild type b-Raf; assay type: functional, cell-based

Row | SMILES | pIC50 [1] | pIC50 [2] | pIC50 [3] | also measured
1 | CS(=O)(=O)N1C2CCC1CC(c1ccnc3c(-c4cccc5[nH]ncc45)c(-c4ccncc4)nn13)C2 (stereo unspecified) | 6.02 | 6.24 | – | –
2 | CCOC(=O)N1C2CCC1CC(c1ccnc3c(-c4ccc(Cl)c(O)c4)c(-c4ccncc4)nn13)C2 (stereo unspecified) | – | 6.92 | > 8.70 | –
3 | CN1C2CC(CO)C1Cc1cnc3c(-c4ccc(Cl)c(O)c4)c(-c4ccncc4)nn3c12 (stereo unspecified) | 5.77 | 6.12 | 9.22 | –
4 | CC(C)N1C2CCC1CC(c1ccnc3c(-c4cccc5[nH]ncc45)c(-c4ccncc4)nn13)C2 (stereo unspecified) | 5.71 | 5.76 | – | –
5 | CCOC(=O)N1C2CCC1CC(c1ccnc3c(-c4ccc(F)c5[nH]ncc45)c(-c4ccncc4)nn13)C2 (stereo unspecified) | 6.21 | 6.52 | – | selectivity ratio [4]: 12; Ratio [5]: 19; selectivity ratio [6]: 5.8
6 | CCOC(=O)N1C2CCC1CC(c1ccnc3c(-c4ccc5c(c4)NC(=O)C5)c(-c4ccncc4)nn13)C2 (stereo unspecified) | – | – | < 6.00 | –
7 | CCOC(=O)N1C2CCC1CC(c1ccnc3c(-c4ccc(F)c(F)c4)c(-c4ccncc4)nn13)C2 (stereo unspecified) | – | – | 6.52 | –
8 | Oc1cccc(-c2c(-c3ccncc3)nn3c(C4CC5CCC(C4)N5)ccnc23)c1 (stereo unspecified) | 5.65 | 6.66 | – | –
9 | CCNC(=O)N1C2CCC1CC(c1ccnc3c(-c4cccc5[nH]ncc45)c(-c4ccncc4)nn13)C2 (stereo unspecified) | 5.55 | 5.82 | – | –
10 | CCOC(=O)N1C2CCC1CC(c1ccnc3c(-c4cccc(OC)c4)c(-c4ccncc4)nn13)C2 (stereo unspecified) | 5.05 | 5.10 | – | –
11 | CCN1C2CCC1CC(c1ccnc3c(-c4ccc(Cl)c(O)c4)c(-c4ccncc4)nn13)C2 (stereo unspecified) | 6.49 | 6.64 | 9.30 | –
12 | COC(=O)C1CC2c3c(cnc4c(-c5ccc(Cl)c(O)c5)c(-c5ccncc5)nn34)CC1N2C (stereo unspecified) | 5.64 | 5.96 | 8.80 | –
13 | CCOC(=O)N1C2CCC1CC(c1c(C)cnc3c(-c4cccc5[nH]ncc45)c(-c4ccncc4)nn13)C2 (stereo unspecified) | 5.91 | 5.73 | 8.08 | –
14 | OCCN1C2CCC1CC(c1ccnc3c(-c4cccc5[nH]ncc45)c(-c4ccncc4)nn13)C2 (stereo unspecified) | 5.46 | 5.86 | – | –
15 | CN(C)C(=O)N1C2CCC1CC(c1ccnc3c(-c4cccc5[nH]ncc45)c(-c4ccncc4)nn13)C2 (stereo unspecified) | 5.52 | 5.67 | – | –
16 | CCOC(=O)N1C2CCC1CC(c1ccnc3c(-c4cccc5[nH]ccc45)c(-c4ccncc4)nn13)C2 (stereo unspecified) | – | – | < 6.00 | –
17 | CCOC(=O)N1C2CCC1CC(c1ccnc3c(-c4ccc(-c5nnco5)cc4)c(-c4ccncc4)nn13)C2 (stereo unspecified) | – | – | 6.82 | –
18 | CC(=O)N1C2CCC1CC(c1ccnc3c(-c4cccc5[nH]ncc45)c(-c4ccncc4)nn13)C2 (stereo unspecified) | 5.60 | 5.74 | – | –
19 | CCN1C2CCC1CC(c1ccnc3c(-c4cccc5[nH]ncc45)c(-c4ccncc4)nn13)C2 (stereo unspecified) | 5.54 | 5.62 | 7.33 | –
20 | CCN1C2CCC1CC(c1ccnc3c(-c4ccc(F)c(O)c4)c(-c4ccncc4)nn13)C2 (stereo unspecified) | 6.12 | 6.35 | – | –
21 | CCOC(=O)N1C2CCC1CC(c1ccnc3c(-c4ccc(C)c5[nH]ncc45)c(-c4ccncc4)nn13)C2 (stereo unspecified) | 6.00 | 6.17 | – | –

Row | SMILES | pIC50 [1] | pIC50 [2] | pIC50 [3] | also measured
22 | CCN1C2CCC1CC(c1ccnc3c(-c4ccc(Cl)c(OC)c4)c(-c4ccncc4)nn13)C2 (stereo unspecified) | 5.66 | 5.25 | – | –
23 | COc1cccc(-c2c(-c3ccncc3)nn3c(C4CC5CCC(C4)N5)ccnc23)c1 (stereo unspecified) | 5.19 | 5.08 | – | –
24 | CS(=O)(=O)C1C2CCC1CC(c1ccnc3c(-c4ccc(Cl)c(O)c4)c(-c4ccncc4)nn13)C2 (stereo unspecified) | 6.57 | 7.05 | > 8.70 | –
25 | CCN1C2CCC1CC(c1ccnc3c(-c4ccc(C)c5[nH]ncc45)c(-c4ccncc4)nn13)C2 (stereo unspecified) | 5.80 | 6.08 | – | –
26 | Oc1cc(-c2c(-c3ccncc3)nn3c(C4CC5CCC(C4)N5)ccnc23)ccc1Cl (stereo unspecified) | 6.36 | 7.05 | – | –
27 | CCN1C2CCC1CC(c1ccnc3c(-c4ccc(C(F)(F)F)c5[nH]ncc45)c(-c4ccncc4)nn13)C2 (stereo unspecified) | 5.77 | 5.54 | 7.35 | –
28 | CCOC(=O)N1C2CCC1CC(c1ccnc3c(-c4ccc(Cl)c(OC)c4)c(-c4ccncc4)nn13)C2 (stereo unspecified) | – | < 5.00 | – | –
29 | CCOC(=O)N1C2CCC1CC(c1ccnc3c(-c4ccc(C)c(O)c4)c(-c4ccncc4)nn13)C2 (stereo unspecified) | 6.24 | 6.64 | – | –
30 | CC(=O)N1C2CCC1CC(c1ccnc3c(-c4ccc(Cl)c(O)c4)c(-c4ccncc4)nn13)C2 (stereo unspecified) | 6.05 | 6.59 | – | –
31 | O=C(O)[C@H]1CCCN1C(=O)N1C2CCC1CC(c1ccnc3c(-c4cccc5[nH]ncc45)c(-c4ccncc4)nn13)C2 (stereo partly specified) | 5.23 | 5.73 | 8.68 | –
32 | CCOC(=O)N1C2CCC1CC(c1ccnc3c(-c4ccc(Cl)c5[nH]ncc45)c(-c4ccncc4)nn13)C2 (stereo unspecified) | 6.24 | 6.55 | 9.40 | selectivity ratio [4]: 19.3; selectivity ratio [6]: 9.4
33 | COc1cc(-c2c(-c3ccncc3)nn3c(C4CC5CCC(C4)N5)ccnc23)ccc1Cl (stereo unspecified) | 5.59 | 5.46 | 8.07 | –
34 | CCN1C2CCC1CC(c1ccnc3c(-c4ccc(C#N)c(O)c4)c(-c4ccncc4)nn13)C2 (stereo unspecified) | < 5.00 | < 5.00 | – | –
35 | CCOC(=O)N1C2CCC1CC(c1ccnc3c(-c4cccc5[nH]c(=O)[nH]c45)c(-c4ccncc4)nn13)C2 (stereo unspecified) | – | – | < 6.00 | –
36 | CCOC(=O)N1C2CCC1CC(c1ccnc3c(-c4cccc(O)c4)c(-c4ccncc4)nn13)C2 (stereo unspecified) | – | 6.62 | – | –
37 | CCN1C2CCC1CC(c1ccnc3c(-c4ccc(Cl)c5[nH]ncc45)c(-c4ccncc4)nn13)C2 (stereo unspecified) | 5.96 | 6.07 | 8.36 | –
38 | CCOC(=O)N1C2CCC1CC(c1ccnc3c(-c4ccc5cc[nH]c5c4)c(-c4ccncc4)nn13)C2 (stereo unspecified) | 5.12 | < 5.00 | – | –
39 | CCOC(=O)N1C2CCC1CC(c1ccnc3c(-c4cccc5[nH]ncc45)c(-c4ccncc4)nn13)C2 (stereo unspecified) | 6.42 | 6.52 | – | selectivity ratio [4]: 2.7; pIC50 [7]: 6.10; selectivity ratio [6]: 2.1
40 | CCOC(=O)N1C2CCC1CC(c1ccnc3c(-c4ccc(C(F)(F)F)c5[nH]ncc45)c(-c4ccncc4)nn13)C2 (stereo unspecified) | 5.60 | 5.64 | 8.36 | –
41 | CN1C2CC(S(=O)(=O)c3ccccc3)C1Cc1cnc3c(-c4ccc(Cl)c(O)c4)c(-c4ccncc4)nn3c12 (stereo unspecified) | 6.00 | 6.22 | 9.10 | –
